Assay results published in publication PMC6199744, “Development of Chemical Proteomics for the Folateome and Analysis of the Kinetoplastid Folateome” (ACS Infectious Diseases, 2018).
Where two headings read alike, the source gives them in different places.

What was measured:
Format in all cases: binding
[1] = target: T1, HeLa cell extract proteins (Homo sapiens, UniProt P40925)
T1 construct: endogenous in cells; host or cells: HeLa cell extract
T1 sequence (P40925 1-334): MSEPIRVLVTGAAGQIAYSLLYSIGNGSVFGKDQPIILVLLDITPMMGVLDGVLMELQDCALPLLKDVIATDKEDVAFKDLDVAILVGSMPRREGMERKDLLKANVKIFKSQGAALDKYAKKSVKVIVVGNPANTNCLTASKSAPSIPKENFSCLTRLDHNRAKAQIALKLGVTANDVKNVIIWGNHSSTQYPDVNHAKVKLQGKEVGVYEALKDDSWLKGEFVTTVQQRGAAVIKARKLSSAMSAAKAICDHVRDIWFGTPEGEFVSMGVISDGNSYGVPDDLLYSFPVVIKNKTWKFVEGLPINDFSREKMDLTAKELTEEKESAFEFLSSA

[2] = target: T2, HeLa cell extract proteins (Homo sapiens, UniProt P67775)
T2 construct: endogenous in cells; host or cells: HeLa cell extract

[3] = target: T3, HeLa cell extract proteins (Homo sapiens, UniProt Q96KA5)
T3 construct: endogenous in cells; host or cells: HeLa cell extract
T3 sequence (Q96KA5 1-538): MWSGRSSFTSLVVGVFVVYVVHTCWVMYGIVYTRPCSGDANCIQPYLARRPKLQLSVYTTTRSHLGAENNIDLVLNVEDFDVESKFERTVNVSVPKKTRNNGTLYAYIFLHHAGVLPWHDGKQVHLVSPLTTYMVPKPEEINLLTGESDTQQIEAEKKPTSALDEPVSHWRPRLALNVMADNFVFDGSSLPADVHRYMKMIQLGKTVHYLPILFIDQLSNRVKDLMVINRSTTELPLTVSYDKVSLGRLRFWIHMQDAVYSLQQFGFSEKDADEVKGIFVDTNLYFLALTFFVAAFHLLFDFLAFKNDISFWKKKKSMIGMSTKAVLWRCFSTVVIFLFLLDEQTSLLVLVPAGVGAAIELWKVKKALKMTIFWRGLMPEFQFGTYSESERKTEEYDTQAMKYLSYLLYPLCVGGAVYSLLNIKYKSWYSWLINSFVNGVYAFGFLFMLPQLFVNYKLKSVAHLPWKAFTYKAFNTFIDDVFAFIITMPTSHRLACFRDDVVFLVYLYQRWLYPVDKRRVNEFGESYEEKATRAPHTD

[4] = target: T4, HeLa cell extract proteins (Homo sapiens, UniProt Q13907)
T4 construct: endogenous in cells; host or cells: HeLa cell extract

[5] = target: T5, HeLa cell extract proteins (Homo sapiens, UniProt Q12931)
T5 construct: endogenous in cells; host or cells: HeLa cell extract
T5 sequence (Q12931 60-704): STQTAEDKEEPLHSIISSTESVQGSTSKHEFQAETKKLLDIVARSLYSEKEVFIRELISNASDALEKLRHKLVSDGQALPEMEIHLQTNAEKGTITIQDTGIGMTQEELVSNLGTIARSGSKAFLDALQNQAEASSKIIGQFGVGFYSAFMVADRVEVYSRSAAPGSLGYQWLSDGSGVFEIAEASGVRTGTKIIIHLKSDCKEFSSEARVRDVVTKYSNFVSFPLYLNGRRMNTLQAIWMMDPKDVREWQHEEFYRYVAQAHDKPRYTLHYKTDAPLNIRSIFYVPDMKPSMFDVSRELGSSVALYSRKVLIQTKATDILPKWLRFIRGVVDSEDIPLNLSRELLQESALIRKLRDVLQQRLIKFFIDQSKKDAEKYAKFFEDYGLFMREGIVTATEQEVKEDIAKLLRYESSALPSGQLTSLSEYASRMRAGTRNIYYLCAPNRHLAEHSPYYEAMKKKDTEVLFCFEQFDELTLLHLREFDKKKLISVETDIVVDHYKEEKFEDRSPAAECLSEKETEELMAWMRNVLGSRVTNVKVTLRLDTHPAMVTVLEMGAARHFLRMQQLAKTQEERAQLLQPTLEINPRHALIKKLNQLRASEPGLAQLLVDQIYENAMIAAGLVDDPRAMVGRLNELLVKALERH

[6] = target: T6, HeLa cell extract proteins (Homo sapiens, UniProt Q9H903)
T6 construct: endogenous in cells; host or cells: HeLa cell extract
T6 sequence (Q9H903 1-347): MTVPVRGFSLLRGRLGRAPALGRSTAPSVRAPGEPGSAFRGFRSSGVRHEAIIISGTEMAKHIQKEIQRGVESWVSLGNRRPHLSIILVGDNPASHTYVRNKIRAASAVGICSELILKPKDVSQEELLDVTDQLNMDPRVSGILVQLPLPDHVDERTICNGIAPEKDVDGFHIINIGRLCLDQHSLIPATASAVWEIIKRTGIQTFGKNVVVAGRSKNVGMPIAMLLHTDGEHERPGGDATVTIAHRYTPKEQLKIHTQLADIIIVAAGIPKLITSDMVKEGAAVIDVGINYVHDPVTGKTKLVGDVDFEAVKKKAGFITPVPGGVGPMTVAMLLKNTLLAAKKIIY

[7] = HeLa, protein MDH1 (MALATE DEHYDROGENASE, CYTOPLASMIC.)
[8] = HeLa, protein IDI1 (ISOPENTENYL-DIPHOSPHATE DELTA ISOMERASE.)

T2 sequence (P67775 whole entry): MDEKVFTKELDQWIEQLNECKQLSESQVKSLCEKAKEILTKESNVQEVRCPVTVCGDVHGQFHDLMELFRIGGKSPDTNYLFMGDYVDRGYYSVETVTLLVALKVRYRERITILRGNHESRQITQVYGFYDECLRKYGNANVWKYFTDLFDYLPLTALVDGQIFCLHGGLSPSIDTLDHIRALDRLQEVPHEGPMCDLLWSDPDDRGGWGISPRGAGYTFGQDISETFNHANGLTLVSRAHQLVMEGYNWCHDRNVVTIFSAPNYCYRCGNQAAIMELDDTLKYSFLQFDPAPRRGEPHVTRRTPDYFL
T4 sequence (Q13907 whole entry): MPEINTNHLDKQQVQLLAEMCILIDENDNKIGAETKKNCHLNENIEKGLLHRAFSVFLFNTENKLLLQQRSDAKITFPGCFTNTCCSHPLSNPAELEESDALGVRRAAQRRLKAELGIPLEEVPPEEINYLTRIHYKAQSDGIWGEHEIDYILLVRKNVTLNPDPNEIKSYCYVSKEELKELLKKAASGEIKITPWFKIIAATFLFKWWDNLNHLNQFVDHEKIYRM

Structure (SMILES) | fold changes relative to vehicle control [1, 7] [fold] | fold changes relative to vehicle control ([2]; HeLa, protein PPP2CA) | fold changes relative to vehicle control ([3]; captured protein CLPTM1L, HeLa) | fold changes relative to vehicle control ([4]; HeLa, protein IDI1 (ISOPENTENYL-D[…] ISOMERASE.)) [fold] | fold changes relative to vehicle control ([5]; protein TRAP1, HeLa) | fold changes relative to vehicle control ([6]; HeLa, protein MTHFD2L) | fold changes relative to vehicle control [1] | fold changes relative to vehicle control [2] | fold changes relative to vehicle control [3] | fold changes relative to vehicle control [4] | fold changes relative to vehicle control [5] | fold changes relative to vehicle control [6] | fold changes relative to vehicle control ([1]; HeLa, protein MDH1) | fold changes relative to vehicle control ([2]; HeLa, captured protein PPP2CA) | fold changes relative to vehicle control ([3]; protein CLPTM1L, HeLa) | fold changes relative to vehicle control ([4]; HeLa, protein IDI1) | fold changes relative to vehicle control [4, 8] [fold]
Nc1nc2cccc(-c3ccccc3)c2n1Cc1ccc(Cl)c(Cl)c1 [compound 3] | 0.87 | 0.91 | 1.14 | 0.88 | 1.06 | 1.07 | – | – | – | – | – | – | – | – | – | – | –
Nc1nc2[nH]cc(CCc3ccc(C(=O)N[C@@H](CCC(=O)O)C(=O)O)cc3)c2c(=O)[nH]1 [PTX, pemetrexed] | – | – | – | – | – | – | 1.2 | 0.93 | 0.91 | 1.03 | 1.02 | 0.9 | – | – | – | – | –
Nc1nc2c(c(=O)[nH]1)N(C=O)C(CNc1ccc(C(=O)N[C@@H](CCC(=O)O)C(=O)O)cc1)CN2 (stereo partly drawn) [LEU, leucovorin] | – | – | – | – | 0.95 | 0.9 | – | – | – | – | – | – | 1.01 | 0.95 | 0.77 | 1.09 | –
CCCCCCOc1cccc(Cc2cnc(N)nc2N)c1 [compound 2] | 2.15 | 1.02 | 1.05 | – | 1.77 | 0.89 | – | – | – | – | – | – | – | – | – | – | 2.18
NCCOCCOCC(=O)Nc1nc2ncc(CNc3ccc(C(=O)NC(CCC(=O)O)C(=O)O)cc3)nc2c(=O)[nH]1 (stereo not drawn) [compound 6] | – | – | – | – | 1.2 | 0.97 | – | – | – | – | – | – | 1.42 | 0.91 | 1.01 | 1.2 | –
CCCCCCOc1ccc(Cc2cnc(N)nc2N)cc1 [compound 1] | 1.3 | 0.87 | 0.84 | – | 1.27 | 0.3 | – | – | – | – | – | – | – | – | – | – | 1.5
NCCCNc1ccc(C(=O)NC(CCC(=O)O)C(=O)O)cc1 (stereo not drawn) [compound 7] | – | – | – | – | 1.01 | 1 | – | – | – | – | – | – | 0.93 | 0.97 | 0.9 | 1.01 | –
